In US12501864B2 (priority 2020, dated 2025):
Structures can show the parent of a compound that is named as a salt.

Conditions: in vivo

## O=C1OC2(c3ccc(O)cc3Oc3cc(O)ccc32)c2ccccc21 [Fluorescein, fluorescein disodium salt]
  distribution by infection level: greater in trees with lower infection levels compared to trees with high infection levels
  distribution in fruits vs leaves: higher in olive fruits than leaves
  distribution throughout the tree: distributed evenly throughout the tree horizontally and vertically to all the sectors measured
